For data set [1], the system named is glioma cell lines C6, RT2, U87, U251, U373 and T98G. Briefly: MTS cell viability assay, glioma cell lines. It is filed as cell-based, rat and human. On the procedure: (§1) The human glioma cell lines U87, U251, T98G, U373, and rat glioma cell line RT2 provided by Dr. Michael Hsiao (Genomics Research Center, Academia Sinica, Taiwan) were cultured in Dulbecco's Modified Eagle medium (DMEM) (Caisson) supplemented with 10% fetal bovine serum (FBS) (Sigma-Aldrich), 2 mM L-glutamine (Caisson), 100 U/ml penicillin, and 100 μg/ml streptomycin (Caisson). The rat glioma C6 cell line provided by Dr. Shun-Fen Tzeng (National Cheng Kung University, Taiwan) was cultured in DMEM/F12 (Caisson) supplemented with 10% fetal bovine serum, 2 mM L-glutamine, 100 U/ml penicillin, and 100 μg/ml streptomycin. The human normal glia cell line SVGP12, kindly provided by Dr. Michael Hsiao, was cultured in Minimum Essential Medium (MEM) (Invitrogen) supplemented with 10% fetal bovine serum, 2 mM L-glutamine, 100 U/ml penicillin, and […]. Primary glia cells were prepared by surgery. […]
(§2) Cell proliferation was determined by MTS (tetrazolium compound, 3-(4,5-dimethylthiazol-2-yl)-5-(3-carboxymethoxyphenyl)-2-(4-sulfophenyl)-2H-tetrazolium) assay (Promega). […] The absorbance of soluble formazan was measured at 490 nm with microplate reader (Molecular device). The cell viability was determined by the percentage of the absorption relative to untreated control. […]
The effects of MJ-66 on other glioma cell lines were further examined. […] Cell viability was assessed by MTS assay (mean±SEM, n=3). […]
In general terms: Tetrazolium dyes change colour on reduction, which living cells bring about.

The test system of data set [2] is C6 rat glioma. Briefly: MTS cell viability assay, C6 glioma cells. As to conditions: 48 hours, mean±SEM, n=3. It is filed as cell-based. On the procedure:
as §1, with “surgery. Cerebral cortices without meninges were dissected from postnatal (P0-P2) Sprague-Dawley (SD, NCKU Laboratory Animal Center) rats and dissociated in 0.05% trypsin-EDTA (Biowest) at 37° C. for 10 min. Culture medium was added and pipetted for several times, and supernatant was removed after a centrifugation at 1,000 rpm for 5 minutes.” for “surgery.”
as §2
To investigate the effect of 2-aryl-4-quinazolinone in accordance with the present invention on cell proliferation, glioma cell lines were treated with MJ-66, MJ-68, or MJ-78. […] The cell viability of each group was analyzed by MTS assay (mean±SEM, n=3).

Data set [3] relates to U87 human glioma xenograft. Kind of data set: in vivo xenograft animal model. Set-up: species or system nude mice. As to conditions: 1.36 microgram/kg intra-tumor every 2 days for 10 times, after 40 days. How it is done: For tumorigenesis, U87 glioma cells (1×10^6 cells per 100 μl PBS) were inoculated subcutaneously into the right flank of 8-to-10-week-old male nude mice (BALB/cAnN-Foxnlnu/CrlNarl mice, National Laboratory Animal Center, Taiwan). Tumor growth was measured every three days. Tumor volume was calculated by volume (mm^3)=[…] (Zhou, Y. H., Wu, X., Tan, F., Shi, Y. X., Glass, T., Liu, T. J., Wathen, K., Hess, K. R., Gumin, J, Lang, F., et al. (2005). PAX6 suppresses growth of human glioblastoma cells. J Neurooncol 71, 223-229). When the tumors reached a mean volume of 50 to 70 mm^3, MJ-66 (1.36 microgram/kg in saline) or vehicle (DMSO or saline) was injected intratumor once per two days during 20 days.
Since MJ-66 was able to effectively cause glioma to undergo mitotic catastrophe in vitro, whether MJ-66 could inhibit tumor growth in vivo was further examined by U87 human glioma xenograft animal model. Approximately 1×10^6 U87 glioma cells were injected subcutaneously into the nude mice and when tumors size reached 50 to 200 mm^3 in volume, MJ-66 (1.36 microgram/kg in saline) or vehicle (DMSO or saline denoted respectively as DMSO and Control) was administered by intra-tumor every 2 days for 10 times and tumor volume was measured for 50 days. Tumor growth was observed every three days.

The test system of data set [4] is M21, CH27, H460, Hep3B and HSC-3 cells. Kind of data set: trypan blue exclusion assay, cancer cell panel (summary). It is filed as cell-based. As to conditions: summary of Table 2. How it is done: Cell viability was also determined by trypan-blue exclusion assay. Cells were seeded in 6-well plates (2×10^4/well) for trypan blue exclusion assay, and incubated for 24 hours at 37° C. Culture medium containing test compound or DMSO (0.006%) was added to each well, and cells were incubated at 37° C. At indicated time points (0, 24, 48, 72 and 96 hr), cells were suspended with 0.05% trypsin-EDTA, and stained with trypan-blue dye (0.4%) (Sigma). The cell viability was evaluated by the percentage of death relative to the total cell, and cell growth curve was determined by number of live cells relative to the total number of cells.
The anti-proliferation effects of Compounds 17-31 on M21, CH27, H460, Hep3B and HSC-3 cells were evaluated by the trypan blue exclusion assay.

Broadly, the IC50 is the point on the concentration scale where inhibition reaches its midpoint. Turning to `O=c1[nH]c(-c2cccc3ccccc23)nc2ccc(N3CCCC3)cc12` [Compound 23, 6-(Pyrrolidin-1-yl)-2-(naphthalen-1-yl)quinazolin-4-one], the “survival rates of glioma cell lines” value in data set [1] (0.00625-1 μM, 24, 48 and 72 hr, MTS assay) was “decreased in a time- and concentration-dependent manner”. Besides, the IC50 in data set [1] (Glioma cell, in vitro, read-out: IC50, growth of glioma cells) was approximately 60 nM; in data set [2] it was 56 ± 9 nM. In addition, the tumor growth result in data set [3] is given as “significantly inhibited”. Also, the tumor volume in data set [3] (N=8, p<0.01) is given as 435.1 mm^3. The “cytotoxic effects toward cancer cells” value in data set [4] was “exhibited cytotoxic effects”.

For the origin of these results see US8710064B2, “2-aryl-4-quinazolinones and their pharmaceutical compositions” (China Medical University, priority 2011, dated 2014).
